{"source": "PubChem BioAssay AID256", "about": "(DTP/NCI, 2004)", "system": "CD2F1 mice, L1210 leukemia ip, survival T/C", "assay": "NCI In Vivo Anticancer Drug Screen. Data for tumor model L1210 Leukemia (intraperitoneal) in CD2F1 (CDF1) mice", "settings": "higher = longer survival", "summary_of_the_method": "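In this screen, transplantable tumors were grown in mice given either the compound or its vehicle. Results were expressed as the treated measurement relative to the control measurement.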", "note": "Values joined by “and” are separate entries in the source; they are usually repeats but may differ in a detail not shown here. Identical values can stand only once. Inconclusive results and toxic doses are left out."}
{"smiles": "NC(=O)c1cn(C2OC(CO)C(O)C2O)c2ncnc(N)c12", "note": "(configuration not stated)", "values": [{"measurement": "T/C", "setting": "endpoint: mean survival time, dose: 0.06 mg/kg/injection, schedule: Q01DX009 (ip), vehicle: acid diluted with saline", "result": "117 % of control"}, {"measurement": "T/C", "setting": "endpoint: mean survival time, dose: 0.06 mg/kg/injection, schedule: Q01DX009 (ip), vehicle: saline", "result": "108 % of control"}, {"measurement": "T/C", "setting": "endpoint: mean survival time, dose: 0.08 mg/kg/injection, schedule: Q## X008 (ip), vehicle: carboxymethylcellulose (CMC)", "result": "117 % of control"}, {"measurement": "T/C", "setting": "endpoint: mean survival time, dose: 0.13 mg/kg/injection, schedule: Q01DX009 (ip), vehicle: saline", "result": "120 % of control and 121 % of control"}, {"measurement": "T/C", "setting": "endpoint: mean survival time, dose: 0.13 mg/kg/injection, schedule: Q03HX008 (ip), vehicle: saline", "result": "124 % of control"}, {"measurement": "T/C", "setting": "endpoint: mean survival time, dose: 0.13 mg/kg/injection, schedule: Q03HX016 (ip), vehicle: saline", "result": "123 % of control"}, {"measurement": "T/C", "setting": "endpoint: mean survival time, dose: 0.13 mg/kg/injection, schedule: Q03HX024 (ip), vehicle: saline", "result": "119 % of control"}, {"measurement": "T/C", "setting": "endpoint: mean survival time, dose: 0.2 mg/kg/injection, schedule: Q01DX005 (ip), vehicle: saline", "result": "115 % of control"}, {"measurement": "T/C", "setting": "endpoint: mean survival time, dose: 0.25 mg/kg/injection, schedule: Q01DX005 (ip), vehicle: saline + alcohol", "result": "124 % of control"}, {"measurement": "T/C", "setting": "endpoint: mean survival time, dose: 0.31 mg/kg/injection, schedule: Q## X002 (ip), vehicle: carboxymethylcellulose (CMC)", "result": "122 % of control"}, {"measurement": "T/C", "setting": "endpoint: mean survival time, dose: 0.31 mg/kg/injection, schedule: Q## X008 (ip), vehicle: carboxymethylcellulose (CMC)", "result": "114 % of control"}, {"measurement": "T/C", "setting": "endpoint: mean survival time, dose: 0.5 mg/kg/injection, schedule: Q01DX009 (ip), vehicle: saline sonified", "result": "123 % of control"}, {"measurement": "T/C", "setting": "endpoint: mean survival time, dose: 0.5 mg/kg/injection, schedule: Q03HX024 (ip), vehicle: saline", "result": "95 % of control"}, {"measurement": "T/C", "setting": "endpoint: mean survival time, dose: 0.5 mg/kg/injection, schedule: Q04DX003 (ip), vehicle: saline", "result": "122 % of control"}, {"measurement": "T/C", "setting": "endpoint: mean survival time, dose: 0.63 mg/kg/injection, schedule: Q01DX001 (ip), vehicle: carboxymethylcellulose (CMC)", "result": "123 % of control"}, {"measurement": "T/C", "setting": "endpoint: mean survival time, dose: 0.63 mg/kg/injection, schedule: Q## X002 (ip), vehicle: carboxymethylcellulose (CMC)", "result": "124 % of control"}, {"measurement": "T/C", "setting": "endpoint: mean survival time, dose: 0.63 mg/kg/injection, schedule: Q## X008 (ip), vehicle: carboxymethylcellulose (CMC)", "result": "91 % of control"}, {"measurement": "T/C", "setting": "endpoint: mean survival time, dose: 1.0 mg/kg/injection, schedule: Q01DX001 (ip), vehicle: saline", "result": "115 % of control and 119 % of control"}, {"measurement": "T/C", "setting": "endpoint: mean survival time, dose: 1.0 mg/kg/injection, schedule: Q01DX007 (ip), vehicle: saline", "result": "119 % of control"}, {"measurement": "T/C", "setting": "endpoint: mean survival time, dose: 1.0 mg/kg/injection, schedule: Q01DX009 (ip), vehicle: saline sonified", "result": "88 % of control and 95 % of control and 111 % of control"}, {"measurement": "T/C", "setting": "endpoint: mean survival time, dose: 1.0 mg/kg/injection, schedule: Q01DX009 (oral), vehicle: saline", "result": "93 % of control"}, {"measurement": "T/C", "setting": "endpoint: mean survival time, dose: 1.0 mg/kg/injection, schedule: Q04DX003 (ip), vehicle: saline", "result": "122 % of control"}, {"measurement": "T/C", "setting": "endpoint: mean survival time, dose: 1.0 mg/kg/injection, schedule: Q08DX002 (ip), vehicle: saline", "result": "117 % of control"}, {"measurement": "T/C", "setting": "endpoint: mean survival time, dose: 1.25 mg/kg/injection, schedule: Q01DX001 (ip), vehicle: carboxymethylcellulose (CMC)", "result": "121 % of control"}, {"measurement": "T/C", "setting": "endpoint: mean survival time, dose: 1.25 mg/kg/injection, schedule: Q## X002 (ip), vehicle: carboxymethylcellulose (CMC)", "result": "114 % of control"}, {"measurement": "T/C", "setting": "endpoint: mean survival time, dose: 1.5 mg/kg/injection, schedule: Q01DX009 (ip), vehicle: saline with Tween-80", "result": "109 % of control"}, {"measurement": "T/C", "setting": "endpoint: mean survival time, dose: 2.0 mg/kg/injection, schedule: Q01DX001 (ip), vehicle: saline", "result": "117 % of control and 112 % of control"}, {"measurement": "T/C", "setting": "endpoint: mean survival time, dose: 2.0 mg/kg/injection, schedule: Q01DX001 (oral), vehicle: saline", "result": "107 % of control"}, {"measurement": "T/C", "setting": "endpoint: mean survival time, dose: 2.0 mg/kg/injection, schedule: Q01DX009 (ip), vehicle: acid diluted with saline", "result": "111 % of control"}, {"measurement": "T/C", "setting": "endpoint: mean survival time, dose: 2.0 mg/kg/injection, schedule: Q01DX009 (ip), vehicle: saline sonified", "result": "88 % of control and 93 % of control"}, {"measurement": "T/C", "setting": "endpoint: mean survival time, dose: 2.0 mg/kg/injection, schedule: Q01DX009 (oral), vehicle: saline", "result": "97 % of control"}, {"measurement": "T/C", "setting": "endpoint: mean survival time, dose: 2.0 mg/kg/injection, schedule: Q08DX002 (ip), vehicle: saline", "result": "119 % of control"}, {"measurement": "T/C", "setting": "endpoint: mean survival time, dose: 2.5 mg/kg/injection, schedule: Q01DX001 (ip), vehicle: carboxymethylcellulose (CMC)", "result": "178 % of control"}, {"measurement": "T/C", "setting": "endpoint: mean survival time, dose: 4.0 mg/kg/injection, schedule: Q01DX001 (ip), vehicle: saline", "result": "121 % of control and 124 % of control"}, {"measurement": "T/C", "setting": "endpoint: mean survival time, dose: 4.0 mg/kg/injection, schedule: Q01DX001 (oral), vehicle: saline", "result": "112 % of control"}, {"measurement": "T/C", "setting": "endpoint: mean survival time, dose: 4.0 mg/kg/injection, schedule: Q01DX005 (ip), vehicle: saline + alcohol", "result": "93 % of control"}, {"measurement": "T/C", "setting": "endpoint: mean survival time, dose: 4.0 mg/kg/injection, schedule: Q01DX009 (oral), vehicle: saline", "result": "98 % of control"}, {"measurement": "T/C", "setting": "endpoint: mean survival time, dose: 4.0 mg/kg/injection, schedule: Q04DX003 (ip), vehicle: saline", "result": "101 % of control"}, {"measurement": "T/C", "setting": "endpoint: mean survival time, dose: 4.0 mg/kg/injection, schedule: Q08DX002 (ip), vehicle: saline", "result": "120 % of control"}, {"measurement": "T/C", "setting": "endpoint: mean survival time, dose: 8.0 mg/kg/injection, schedule: Q01DX001 (ip), vehicle: saline", "result": "113 % of control"}, {"measurement": "T/C", "setting": "endpoint: mean survival time, dose: 8.0 mg/kg/injection, schedule: Q01DX001 (oral), vehicle: saline", "result": "101 % of control"}, {"measurement": "T/C", "setting": "endpoint: mean survival time, dose: 8.0 mg/kg/injection, schedule: Q08DX002 (ip), vehicle: saline", "result": "88 % of control"}, {"measurement": "T/C", "setting": "endpoint: mean survival time, dose: 16.0 mg/kg/injection, schedule: Q01DX001 (oral), vehicle: saline", "result": "107 % of control"}, {"measurement": "T/C", "setting": "endpoint: mean survival time, dose: 125.0 micrograms/kg/injection, schedule: Q01DX006 (iv), vehicle: saline", "result": "106 % of control"}, {"measurement": "T/C", "setting": "endpoint: mean survival time, dose: 125.0 micrograms/kg/injection, schedule: Q01DX Z (im), vehicle: saline", "result": "100 % of control"}, {"measurement": "T/C", "setting": "endpoint: mean survival time, dose: 250.0 micrograms/kg/injection, schedule: Q01DX006 (iv), vehicle: saline", "result": "101 % of control"}, {"measurement": "T/C", "setting": "endpoint: mean survival time, dose: 250.0 micrograms/kg/injection, schedule: Q01DX Z (im), vehicle: saline", "result": "101 % of control"}, {"measurement": "T/C", "setting": "endpoint: mean survival time, dose: 500.0 micrograms/kg/injection, schedule: Q01DX006 (iv), vehicle: saline", "result": "106 % of control"}, {"measurement": "T/C", "setting": "endpoint: mean survival time, dose: 500.0 micrograms/kg/injection, schedule: Q01DX Z (im), vehicle: saline", "result": "107 % of control"}, {"measurement": "T/C", "setting": "endpoint: mean survival time, dose: 1000.0 micrograms/kg/injection, schedule: Q01DX006 (iv), vehicle: saline", "result": "109 % of control"}, {"measurement": "T/C", "setting": "endpoint: mean survival time, dose: 1000.0 micrograms/kg/injection, schedule: Q01DX Z (im), vehicle: saline", "result": "103 % of control"}, {"measurement": "T/C", "setting": "endpoint: median survival time, dose: 2.0 mg/kg/injection, schedule: Q01DX009 (ip), vehicle: saline", "result": "112 % of control"}]}
